Drawing on patent publication US20230106583A1, “HETEROARYL COMPOUNDS” (Vivace Therapeutics, Inc., priority 2019, published 2023), this text covers IC50 for 23 compounds.

Where only a bound is given, the exact number is not on record here.

This test relates to HEK293T cells stably transfected with 8XTBD luciferase reporter and pRLTK. Description: YAP Reporter Assay (8XTBD-driven firefly luciferase). In kind it is cell-based. The note with it: Homo sapiens, HEK-293T; HEK293T 8XTBD luciferase reporter; 24-hr incubation with compounds; top concentration 3 μM, 10 points. The procedure: HEK293T cells stably transfected with 8XTBD luciferase reporter and pRLTK in 384-well plates were treated with the test compounds, starting from 3 μM (final concentration in assay plate), 1:3 dilution, and 10 points in quadruplicates. Post 24-hr incubation with compounds at 37° C. and 5% CO2, cells were lysed and 8XTBD-driven firefly luciferase and control TK-driven renilla luciferase activities were measured using Promega Dual-Luciferase Reporter Assay System.
Reagents: The reagents used for this study are: DMEM: Invitrogen #11960077, Dual-Glo Luciferase Assay System: Promega-E2980, Puromycin Dihydrochloride: Invitrogen-A1113803, 384-well plate: PerkinElmer-6007480, L-GLUTAMINE: Invitrogen-25030164, Hygromycin B: Invitrogen-10687010, and Penicillin-Streptomycin: Merk-TMS-AB2-C
Media: The media used for this assay were: Culture Medium: DMEM+1 ug/mL puromycin+200 ug/mL hygromycin (with 10% FBS+1 mM L-glutamine); and Assay Medium: DMEM (with 10% FBS+1 mM L-glutamine+1×P/S).
Cell Plating: The appropriate media was warmed at 37° C. by water bath: Culture Medium, Assay Medium, 1*D-PBS, 0.05% trypsin-EDTA. The cells were trypsinized after removing all media, then washed with 1*sterile D-PBS and then with 2 ml 0.05% trypsin-EDTA. The cells were then incubated at RT for one minute. Then 10 ml/75 cm2 flask Assay Medium was added to each flask. Using a 10 ml pipette, the cells were then gently resuspended in the media, until the clumps completely disappeared. The cells were then transferred into 50 ml centrifuge tubes and were centrifuged at 800 rpm for 5 mins. The medium was removed and the cells were resuspended with Assay Medium. An aliquot of cells was used to count the cell density (cells/ml). The cell suspension was then diluted with Assay Medium to a concentration of 6×10^4 cells/ml. 50 ul cells suspension was then plated to 384-well plate (PerkinElmer-6007480), 3×10^3 cells/well and the cells were incubated in an incubator at 37° C., 5% CO2.
Compound Treatment: In the afternoon (incubation of the plate with 3-4 hrs), the test compounds were added by Echo, starting from 3 uM (final concentration in the assay plate), 1:3 dilution, 10 points, quadruplicates. The plate was placed at 37° C., 5% CO2 incubator for 24 hrs.
Detection: The Dual-Glo Luciferase Reagent was prepared by transferring the contents of one bottle of Dual-Glo Luciferase Buffer to one bottle of Dual-Glo Luciferase Substrate to create the Dual-Glo Luciferase Reagent. Mixing was performed by inversion until the substrate was thoroughly dissolved. After mixing, the reagent was aliquoted into 15 ml tubes. In the afternoon (24 hrs post compound treatment), the DMEM+medium in the 384 well plates were aspirated by Microplate Washer.
Measuring firefly luciferase activity: 20 ul Dual-Glo Luciferase Reagent was added to the 384-well plates. The plates were protected from light to prevent interference with the assay. The plates were shaken for 1 min followed centrifuging plates at 1000 rpm for 30 seconds. After waiting at least 10 minutes, the firefly luminescence was measured by Envision.
Measuring renilla luciferase activity: 20 ul Stop-Glo Reagent was added to the 384-well plates. The plates were shaken for 1 min and then centrifuged at 1000 rpm for 30 seconds. After waiting at least 10 minutes, the renilla luminescence was measured by Envision.
Compound IC50 and maximum inhibition on the firefly luciferase and renilla luciferase activities were reported separately.

In the case of `CC[C@@]1(c2nnc(-c3cccnc3Nc3ccc(S(F)(F)(F)(F)F)cc3)o2)CCCNC1=O` [Compound 21, (3S)-3-ethyl-3-[5-[2-[4-(pentafluoro-λ6-sulfanyl)anilino]-3-pyridyl]-1,3,4-oxadiazol-2-yl]piperidin-2-one], the IC50 is not above 100 nM.

For `C[C@]1(c2nnc(-c3cccnc3Nc3ccc(S(F)(F)(F)(F)F)cc3)o2)CCNC1=O` [Compound 35, (3R)-3-methyl-3-[5-[2-[4-(pentafluoro-λ^6-sulfanyl)anilino]-3-pyridyl]-1,3,4-oxadiazol-2-yl]pyrrolidin-2-one], the IC50 lay within 100 to 1000 nM.

`C[C@]1(n2nnc(-c3cccnc3Nc3ccc(S(F)(F)(F)(F)F)cc3)n2)CCNC1=O` [Compound 28, (3S)-3-methyl-3-[5-[2-[4-(pentafluoro-λ^6-sulfanyl)anilino]-3-pyridyl]tetrazol-2-yl]pyrrolidin-2-one]: the IC50 is not above 100 nM.

Regarding `CNCc1nnc(-c2cccnc2Nc2ccc(C(F)(F)F)cc2)o1` [Compound 9, 3-[5-(methylaminomethyl)-1,3,4-oxadiazol-2-yl]-N-[4-(trifluoromethyl)phenyl]pyridin-2-amine], the concentration for half-maximal inhibition (IC50) is 100 to 1000 nM.

For the compound `C[C@]1(c2nnc(-c3cccnc3Nc3ccc(C(F)(F)F)cc3)o2)CCNC1=O` [Compound 12, (R)-3-methyl-3-(5-(2-((4-(trifluoromethyl)phenyl)amino)pyridin-3-yl)-1,3,4-oxadiazol-2-yl)pyrrolidin-2-one], the IC50 was not above 100 nM.

For the compound `CC[C@]1(c2nnc(-c3cccnc3Nc3ccc(S(F)(F)(F)(F)F)cc3)o2)CCNC1=O` [Compound 23, (3R)-3-ethyl-3-[5-[2-[4-(pentafluoro-λ^6-sulfanyl)anilino]-3-pyridyl]-1,3,4-oxadiazol-2-yl]pyrrolidin-2-one], the IC50 fell in the range of 100 to 1000 nM.

Take `CCN(C#N)CCc1nnc(-c2nccnc2Nc2ccc(C(F)(F)F)cc2)o1` [Compound 2, ethyl-[2-[5-[3-[4-(trifluoromethyl)anilino]pyrazin-2-yl]-1,3,4-oxadiazol-2-yl]ethyl]cyanamide]: the IC50 is not above 100 nM.

On to `CN(C#N)CCc1nnc(-c2cccnc2Nc2ccc(C(F)(F)F)cc2)o1` [Compound 16, methyl-[2-[5-[2-[4-(trifluoromethyl)anilino]-3-pyridyl]-1,3,4-oxadiazol-2-yl]ethyl]cyanamide], for which the IC50 was not above 100 nM.

Take `CCN(C#N)Cc1nnc(-c2nccnc2Nc2ccc(C(F)(F)F)cc2)o1` [Compound 44, ethyl-[[5-[3-[4-(trifluoromethyl)anilino]pyrazin-2-yl]-1,3,4-oxadiazol-2-yl]methyl]cyanamide]: the IC50 is not above 100 nM.

In the case of `CN1CCNC(=O)C1(C)c1nnc(-c2cccnc2Nc2ccc(C(F)(F)F)cc2)o1` (centres unmarked) [Compound 25, 3,4-dimethyl-3-[5-[2-[4-(trifluoromethyl)anilino]-3-pyridyl]-1,3,4-oxadiazol-2-yl]piperazin-2-one], the IC50 is 100 to 1000 nM.

In the case of `CCN(Cc1nnc(-c2cccnc2Nc2ccc(C(F)(F)F)cc2)o1)C(=O)OC(C)(C)C` [Compound 8, tert-butyl N-ethyl-N-[[5-[2-[4-(trifluoromethyl)anilino]-3-pyridyl]-1,3,4-oxadiazol-2-yl]methyl]carbamate], the IC50 was 1000 to 3000 nM.

As to `C[C@]1(c2nnc(-c3cccnc3Nc3ccc(S(F)(F)(F)(F)F)cc3)o2)CCCNC1=O` [Compound 29, (3R)-3-methyl-3-[5-[2-[4-(pentafluoro-λ^6-sulfanyl)anilino]-3-pyridyl]-1,3,4-oxadiazol-2-yl]piperidin-2-one], the IC50 was not above 100 nM.

In the case of `CC[C@@]1(c2nnc(-c3cccnc3Nc3ccc(S(F)(F)(F)(F)F)cc3)o2)CCNC1=O` [Compound 24, (3S)-3-ethyl-3-[5-[2-[4-(pentafluoro-λ^6-sulfanyl)anilino]-3-pyridyl]-1,3,4-oxadiazol-2-yl]pyrrolidin-2-one], the half-inhibitory concentration (IC50) was not above 100 nM.

`C[C@@]1(c2nnc(-c3cccnc3Nc3ccc(C(F)(F)F)cc3)o2)CCCNC1=O` [Compound 39, (S)-3-methyl-3-(5-(2-((4-(trifluoromethyl)phenyl)amino)pyridin-3-yl)-1,3,4-oxadiazol-2-yl)piperidin-2-one]: the IC50 was not above 100 nM.

Regarding `CC[C@]1(c2nnc(-c3cccnc3Nc3ccc(C(F)(F)F)cc3)o2)CCCNC1=O` [Compound 32, (3R)-3-ethyl-3-[5-[2-[4-(trifluoromethyl)anilino]-3-pyridyl]-1,3,4-oxadiazol-2-yl]piperidin-2-one], the IC50 was not above 100 nM.

Consider `CCN(C#N)CCc1nnc(-c2cccnc2Nc2ccc(C(F)(F)F)cc2)o1` [Compound 15, ethyl-[2-[5-[2-[4-(trifluoromethyl)anilino]-3-pyridyl]-1,3,4-oxadiazol-2-yl]ethyl]cyanamide], for which the IC50 was not above 100 nM.

Turning to `CN(C#N)Cc1nnc(-c2nccnc2Nc2ccc(C(F)(F)F)cc2)o1` [Compound 45, methyl-[[5-[3-[4-(trifluoromethyl)anilino]pyrazin-2-yl]-1,3,4-oxadiazol-2-yl]methyl]cyanamide], the IC50 is not above 100 nM.

Regarding `C[C@@]1(n2nnc(-c3cccnc3Nc3ccc(C(F)(F)F)cc3)n2)CCNC1=O` [Compound 43, (3R)-3-methyl-3-[5-[2-[4-(trifluoromethyl)anilino]-3-pyridyl]tetrazol-2-yl]pyrrolidin-2-one], the IC50 is not above 100 nM.

For `CNCc1nnc(-c2nccnc2Nc2ccc(C(F)(F)F)cc2)o1` [Compound 48, 3-[5-(methylaminomethyl)-1,3,4-oxadiazol-2-yl]-N-[4-(trifluoromethyl)phenyl]pyrazin-2-amine], the IC50 fell in the range of 1000 to 3000 nM.

In the case of `CC[C@]1(c2nnc(-c3cccnc3Nc3ccc(S(F)(F)(F)(F)F)cc3)o2)CCCNC1=O` [Compound 22, (3R)-3-ethyl-3-[5-[2-[4-(pentafluoro-λ6-sulfanyl)anilino]-3-pyridyl]-1,3,4-oxadiazol-2-yl]piperidin-2-one], the IC50 lay in the range of 100 to 1000 nM.

Consider `CCN(C#N)Cc1nnc(-c2cccnc2Nc2ccc(C(F)(F)F)cc2)o1` [Compound 5, ethyl-[[5-[2-[4-(trifluoromethyl)anilino]-3-pyridyl]-1,3,4-oxadiazol-2-yl]methyl]cyanamide], for which the IC50 was not above 100 nM.

On to `C[C@@]1(c2nnc(-c3cccnc3Nc3ccc(S(F)(F)(F)(F)F)cc3)o2)CCCNC1=O` [Compound 30, (3S)-3-methyl-3-[5-[2-[4-(pentafluoro-λ^6-sulfanyl)anilino]-3-pyridyl]-1,3,4-oxadiazol-2-yl]piperidin-2-one], for which the IC50 is 100 to 1000 nM.

In the case of `C[C@@]1(c2nnc(-c3cccnc3Nc3ccc(S(F)(F)(F)(F)F)cc3)o2)CCNC1=O` [Compound 36, (3S)-3-methyl-3-[5-[2-[4-(pentafluoro-λ^6-sulfanyl)anilino]-3-pyridyl]-1,3,4-oxadiazol-2-yl]pyrrolidin-2-one], the concentration for half-maximal inhibition (IC50) is not above 100 nM.

Usually IC50 stands for the concentration at which inhibition is half-maximal.
